In US20080039481A1, “Seed Dressing for Soya Bean” (BAYER CROPSCIENCE AG, priority 2004, published 2008):

What was measured:
Phakopsora Pachyrhizi [1] = experiment: Seed dressing field trial, action of fluquinconazole against soya bean rust; format: in vivo; conditions: natural infection (control 75%)
Protocol: Action of Fluquinconazole against Phakopsora Pachyrhizi Seed Dressing: Fluquinconazole 25 WPC (Wettable Powder) For dressing, the seed was shaken for 1 minute with the seed dressing in a closed plastic bag. The seed was sown in a field (4 plots, plot size in each case 10 m^2, 40 seeds per m^2) and, one day after sowing, artificially irrigated. The natural degree of infection in the control was, on average, 75%. The efficacy is expressed in percent. 0% means an efficacy which corresponds with that of the control, whereas an efficacy of 100% means that no infection is observed.

Phakopsora Pachyrhizi [2] = experiment: Seed dressing field trial, action of prothioconazole against soya bean rust; format: in vivo; conditions: duration 28 days, natural infection (control 75%)
Protocol: Action of Prothioconazole against Phakopsora Pachyrhizi
Seed Dressing: Prothioconazole
For dressing, the seed was shaken for 1 minute with the seed dressing in a closed plastic bag.
The seed was sown in a field (4 plots, plot size in each case 10 m^2, 40 seeds per m^2) and, one day after sowing, artificially irrigated.
The natural degree of infection in the control was, on average, 75%.
The efficacy is expressed in percent. 0% means an efficacy which corresponds with that of the control, whereas an efficacy of 100% means that no infection is observed.

Measured: Efficacy

O=c1c2cc(F)ccc2nc(-n2cncn2)n1-c1ccc(Cl)cc1Cl [fluquinconazole]
100%: Phakopsora Pachyrhizi [1]; 5 g of fluquinconazole/100 kg of seed, duration 28 days | Phakopsora Pachyrhizi [1]; 50 g of fluquinconazole/100 kg of seed, duration 22 days | Phakopsora Pachyrhizi [1]; 50 g of fluquinconazole/100 kg of seed, duration 33 days | Phakopsora Pachyrhizi [1]; 50 g of fluquinconazole/100 kg of seed, duration 37 days

OC(Cc1ccccc1Cl)(Cn1nc[nH]c1=S)C1(Cl)CC1 (stereo not drawn) [prothioconazole]
100%: Phakopsora Pachyrhizi [2]; 5 g of prothioconazole/100 kg of seed | Phakopsora Pachyrhizi [2]; 10 g of prothioconazole/100 kg of seed
